Experimental data taken from PubChem BioAssay AID2305 (GlaxoSmithKline (GSK), 2010).

Test system: P. falciparum 3D7 growth, pLDH absorbance
Experiment: P. falciparum 3D7 growth inhibition, dose response, strain 3D7 (AID 2305)

| Compound | IC50 |
| --- | --- |
| CN(C)S(=O)(=O)c1cc(-c2ccc3nccc(-c4cccc(S(N)(=O)=O)c4)c3c2)cnc1N | 250 nM |
| CCOc1ccc(-c2nc(NC(=O)CS(=O)(=O)c3ccccc3)sc2C)cc1 | 510 nM |
| Cc1cc(Nc2cccc(C(F)(F)F)c2)nc(NCc2ccccc2)n1 | 150 nM |
| CCN(CC)CCCC(C)Nc1cc(C)nc2cc(Cl)ccc12 (configuration not stated) | 730 nM |
| O=C(Nc1ccc(OC2CCN(Cc3ccco3)C2)c(Cl)c1)c1ccc2ncccc2c1 (configuration not stated) | 1080 nM |
| Cc1ccc(CC(C)NCC(O)c2cccc(Cl)c2)cc1 (configuration not stated) | 930 nM |
| CCOc1ccccc1CCNCC1CCN(CC2CCCCC2)CC1 | 780 nM |
| COc1ccc2nccc([C@@H](O)CN3CCC(NC(=O)c4ccc(-c5ccc(C#N)cc5)cc4)CC3)c2c1 | 160 nM |
| COc1ccc(S(=O)(=O)NCCC2CCN(CCCCCNC(=O)C=Cc3ccc(Cl)c(Cl)c3)CC2)cc1 | 960 nM |
| CCCCCCNC(=O)C(N)CCCC(N)C(=O)NCCCCCC (configuration not stated) | 160 nM |
| CCCC(=O)c1cnc2cc(O)ccc2c1Nc1ccccc1C | 650 nM |
| CCCCN1CC[C@@H](CCC(O)c2cc(OCCC)nc3ccc(OC)cc23)[C@@H](CC)C1 (some centres not stated) | 360 nM |
| Cn1nccc1C(=O)NCCNCc1cccc(-c2csc(-c3nc4ccccc4[nH]3)c2)c1 | 840 nM |
| Cc1cccc(C)c1CNc1ccnc2ccccc12 | 1200 nM |
| COc1ccc2nccc([C@@H](O)CN3CCC(NCc4cnc5snnc5c4)C(F)C3)c2c1 (some centres not stated) | 1350 nM |
| COc1ccc2nccc([C@@H](O)CN3CCC(NC(=O)C(c4ccsc4)N4CCN(c5ccccc5OC)CC4)CC3)c2c1 (some centres not stated) | 830 nM |
| Cn1cnc2c(Nc3ccncc3)nc(-c3ccc4ccccc4c3)nc21 | 870 nM |
| COc1cccc(CCc2c(CCNCCCCCCNCCc3ccccc3)ccc(OC)c2OC)c1 | 720 nM |
| COc1ccc2nccc([C@@H](O)CN3CCC(NCc4cc5ccccc5cn4)CC3)c2n1 | 920 nM |
| COc1ccc(NC(=O)C=Cc2ccc(Oc3ccccc3Cl)c([N+](=O)[O-])c2)cc1OCCN(C(C)C)C(C)C | 880 nM |
| COc1cc(Nc2nccc(-c3c(-c4cccc(NC(=O)c5c(F)cccc5F)c4)nn4ncccc34)n2)cc(OC)c1OC | 30 nM |
| COc1cc2ncnc(Nc3ccc(OCc4ccccc4)c(I)c3)c2cc1OC | 710 nM |
| N#Cc1ccc(-c2ccc(C(=O)NCCCCN3CCC(c4nc5ccccc5[nH]4)CC3)cc2)cc1 | 1010 nM |
| Nc1ccc2[nH]cc(C3CCN(CC4CCN(C(=O)/C=C/c5ccc(Cl)c(Cl)c5)CC4)CC3)c2n1 | 700 nM |
| Cc1cc(C)c2oc(-c3cccc(NC(=O)c4ccc([N+](=O)[O-])o4)c3C)nc2c1 | 1150 nM |

| Compound | IC50 |
| --- | --- |
| CN(C)CCN(C)Cc1cccc(-c2ccc3c(Nc4cc(O)c(Cl)cc4F)ccnc3c2)c1 | 240 nM |
| N#Cc1ccc(N(CCCO)Cc2ccccc2C(F)(F)F)cc1C(F)(F)F | 980 nM |
| CC(=NNC(=S)NC(c1ccccc1)c1ccccc1)c1ccccn1 | 900 nM |
| COc1cc(CS(C)(=O)=O)ccc1Nc1nccc(-c2c(-c3cccc(NC(=O)c4c(F)cccc4F)c3)nn3ccccc23)n1 | 970 nM |
| COCn1ncc2cc(-c3cccc(NC(=O)c4csc(NC(C)=O)n4)c3)ccc21 | 990 nM |
| CC(Oc1c(C2CCN(CCCCNC(=O)c3ccc(-c4ccc(C#N)cc4)cc3)CC2)ccc2c1CCCC2)C(N)=O (configuration not stated) | 680 nM |
| CCOc1cc(C(=O)N[C@@H](Cc2ccccc2)[C@H](O)CNC(C)(C)c2cccc(OC)c2)cc(N2CCCS2(=O)=O)c1 | 220 nM |
| CN1CCCC(CN2CCN(Cc3cccc(-c4ccc(-c5nc6ccc(F)cc6[nH]5)cc4)c3)CC2)C1 (configuration not stated) | 140 nM |
| CC(C)C[C@H](NC(=O)[C@H](Cc1ccccc1)N(C[C@H](Cc1ccccc1)NC(=O)OC(C)(C)C)C(=O)C(F)(F)F)C(=O)NC1CCN(Cc2ccccc2)CC1 | 530 nM |
| c1ccc(CN2CCC(Nc3ccc(-c4cn[nH]c4-c4ccccn4)nc3)CC2)cc1 | 800 nM |
| Cc1ccc(F)cc1-c1cc(N2CCCN(C(=O)c3ccc(Br)o3)CC2)ncn1 | 1430 nM |
| COc1ccc(NC(=O)Nc2cccc(-c3ccc(-c4nc5c(C)cccc5[nH]4)s3)c2)cc1 | 670 nM |
| O=c1cc(N2CCNCC2)c(Cl)nn1Cc1ccc(NS(=O)(=O)c2ccc(Oc3ccccc3)cc2)cc1 | 570 nM |
| Brc1ccsc1-c1nc(NCCC(c2ccccc2)c2ccccc2)no1 | 1080 nM |
| CC(=O)Nc1ncc(C(=O)Nc2cccc(-c3cccc(-c4nc5ccc(F)cc5[nH]4)c3)c2)s1 | 450 nM |
| Cc1noc(C)c1-c1cccc(CNCc2cccc(-c3cccc(-c4nc5ccccc5[nH]4)c3)c2)c1 | 380 nM |
| NC(N)=NCCCN(Cc1ccccc1)c1ccc(Cl)cc1 | 560 nM |
| O=C(/C=C/c1ccc(Cl)c(Cl)c1)N1CCC(CN2CCC(Cc3cc4ccccc4[nH]3)CC2)CC1 | 630 nM |
| C=CCOC(=O)N1CCC(CNCc2cccc(-c3ccc(-c4nc5ccc(C(F)(F)F)cc5[nH]4)cc3)c2)C1 (configuration not stated) | 150 nM |
| Cc1ccc(OCC2CCN(c3ncc(C(=O)NC4CC4)cc3Cl)CC2)cc1 | 1090 nM |
| Cc1cccc2[nH]c(-c3ccc(-c4cccc(CN5CCN(c6ccncc6)CC5)c4)cc3)nc12 | 120 nM |
| CCOc1ccc(C(C)NC(=O)Nc2ccccc2)cc1OCC (configuration not stated) | 900 nM |
| O=C(NC1CCC(CN2CCC(c3c[nH]c4ccccc34)CC2)CC1)[C@H]1Cc2ccccc2CN1 (some centres not stated) | 950 nM |
| CCOc1cc(C(=O)Nc2ccc(-c3nc4ccccc4[nH]3)cc2)cc(OCC)c1OCC | 230 nM |
| CCC(Nc1noc(-c2c(-c3ccccc3)noc2C)n1)c1ccccc1 (configuration not stated) | 970 nM |

| Compound | IC50 |
| --- | --- |
| CC1(CCCCN2CC=C(c3c[nH]c4ccccc34)CC2)C(=O)Nc2ccccc21 (configuration not stated) | 140 nM |
| Cc1cc(OCCN2CCCCC2)ccc1NC(=O)c1cccc2c(=O)n(Cc3ccc(Cl)cc3)cnc12 | 1060 nM |
| C[C@H](Cc1ccc(C(=O)OC(c2ccccc2)c2ccccc2)cc1)NC[C@H](O)c1ccccc1 | 180 nM |
| Cc1c(CNCCCNc2cc(=O)c3ccccc3[nH]2)sc(-c2ccco2)c1Br | 1020 nM |
| Cc1cccc(-c2c(C)nc(N)nc2N)c1 | 1150 nM |
| CC(C)C(C(=O)Nc1ccc2c(c1)OCO2)c1ccc(Cl)cc1 (configuration not stated) | 720 nM |
| Clc1cc(Cl)c2cc(CNCCCNc3ccc4ccccc4n3)[nH]c2c1 | 340 nM |
| c1ccc(-c2[nH]c3ccccc3c2CN2CCC(N3CCCCC3)CC2)nc1 | 1210 nM |
| CC1(C)[C@H]2CC[C@]1(C)CN(CC(O)Cn1c3ccccc3c3cc(I)ccc31)C2 (some centres not stated) | 1160 nM |
| N[C@@H](CCNCc1ccc(-c2cccnc2)cc1)Cc1ccc(F)c(F)c1 | 800 nM |
| Cc1cc(N2CCCC2)nc(/N=C(\N)Nc2cccc(C(F)(F)F)c2)n1 | 320 nM |
| CC(Cc1ccc(NC(=O)c2ccc(CC(C)NCc3ccc(Cl)c(Cl)c3)cc2)cc1)NCCc1cccc(Cl)c1 (configuration not stated) | 1000 nM |
| CN(Cc1ccc(-c2ccc(C(F)(F)F)cc2)cc1)C(=O)Cn1c(CCc2cccc(F)c2F)nc(=O)c2ccc(N3CCN(CCN4CCCCC4)CC3)nc21 | 760 nM |
| CCOC(=O)Cc1nc(N)c(C(=O)OCC)[nH]1 | 650 nM |
| O=C(CCCCCNC(=O)c1ccc(O)c(-c2ccc(Cl)c(Cl)c2)c1)NC1CCCc2ccccc21 (configuration not stated) | 760 nM |
| Cc1cc(N[C@@H](CC(C)C)C(=O)NCc2cccs2)nc(NCCc2cccs2)n1 | 1020 nM |
| COc1cc(Cc2cnc(N)nc2N)cc(OCCCS(=O)(=O)O)c1OC | 1170 nM |
| O=C(Nc1cccc(C(F)(F)F)c1)c1ccc(S(=O)(=O)NC2CCN(CC3CCCCC3)C2)cc1 (configuration not stated) | 790 nM |
| NCc1ccc(CNCc2cccc(-c3cccc(-c4nc5ccccc5[nH]4)c3)c2)cc1 | 490 nM |
| O=C(C=Cc1ccc(Cl)c(Cl)c1)NCCCCCN1CCC(CCCNC(=O)c2ccc3c(c2)OCO3)CC1 | 150 nM |
| CN(C)CCC1CCN(CCS(=O)(=O)c2cccc(Nc3ncc(-c4cccc(F)c4)cn3)c2)CC1 | 1060 nM |
| CCOC(=O)c1c(CNc2ccncc2)n(C)c2cc(Br)c(OC(C)=O)cc12 | 370 nM |
| Cc1cccc2[nH]c(-c3ccc(-c4cccc(CN5CCCC(N)C5)c4)s3)nc12 (configuration not stated) | 540 nM |
| COc1ccc2c(NN=Cc3cccc(F)c3)cc(C)nc2c1 | 780 nM |
| CC(C)(C)OC(=O)/C=C(\C(=O)OCc1ccc([N+](=O)[O-])cc1)c1csc(NC(c2ccccc2)(c2ccccc2)c2ccccc2)n1 | 860 nM |

| Compound | IC50 |
| --- | --- |
| NC(N)=NC(=O)Nc1cc(Cl)c(Cl)c(Br)c1 | 610 nM |
| Clc1ccc2nccc(N3CCC(CN4CCC(c5c[nH]c6ccccc56)CC4)CC3)c2c1 | 30 nM |
| CC(=O)N/N=C/[C@H](CCc1ccccc1)NC(=O)[C@H](CC(C)C)NC(=O)c1cccc(OCCN2CCOCC2)c1 | 240 nM |
| CC(C)c1ccc2c(c1)c(SC(C)(C)C)c(CC(C)(C)C#N)n2Cc1ccc(Cl)cc1 | 220 nM |
| CN(C)c1ccc(C2(c3ccccc3)N=C(N)N(CCCc3ccccc3)C2=O)cc1 (configuration not stated) | 970 nM |
| COc1cc(C(=O)N2[C@@H](c3nccs3)[C@@H](C(=O)N(OC)C(C)c3ccccc3)C[C@@]2(CC(C)C)C(=O)OC(C)(C)C)ccc1C(C)(C)C (some centres not stated) | 1070 nM |
| Cc1cccc2[nH]c(-c3cccc(-c4ccc(CN5CCN(CCO)CC5)cc4)c3)nc12 | 820 nM |
| COc1ccc(-c2ccc(NC(=O)c3ccccc3)cc2)cc1CN1CCCN(C)CC1 | 910 nM |
| Cc1cccc2[nH]c(-c3cccc(-c4cccc(CNCCCN5CCCC5=O)c4)c3)nc12 | 740 nM |
| CN1c2ccccc2Sc2cc(CNCCSCCNCc3ccc4c(c3)Sc3ccccc3N4C)ccc21 | 1010 nM |
| CCn1ncc(Cl)c1CN(C)S(=O)(=O)c1ccc2ccccc2c1 | 820 nM |
| c1cncc(CCNCc2ccc(-c3cccc(-c4nc5ccccc5[nH]4)c3)cc2)c1 | 160 nM |
| O=C(NC1CC1)c1ccc(N2CCC(Cc3ccccc3)CC2)nc1 | 760 nM |
| CC(C)NCc1cccc(-c2cccc(NC(=O)c3cccc(Cl)c3)c2)c1 | 590 nM |
| CNC(=O)c1c(NC(=O)c2cccs2)sc2c1CCCC2 | 820 nM |
| COc1ccccc1CCN(C)CCN1CCC(NC(=O)c2ccc(-c3ccc(C(F)(F)F)cc3)cc2)CC1 | 1030 nM |
| CCOc1cc(C(=O)NC2CCN(Cc3ccccc3)CC2)ccc1-c1nc2cc(Cl)c(Cl)cc2[nH]1 | 470 nM |
| FC(F)(F)c1ccc(-c2cncc(-c3ccc(C(F)(F)F)cc3)n2)cc1 | 760 nM |
| CN(C)Cc1ccc(-c2cccc(NC(=O)c3ccc(Cl)cc3)c2)cc1 | 900 nM |
| OC(CNc1ccnc(Nc2ccc(Cl)cc2)n1)c1ccccc1C(F)(F)F (configuration not stated) | 790 nM |
| O=C(Nc1cccc(CN2CCCN(CC3CC3)CC2)c1)c1ccc(Cl)c(Cl)c1 | 1030 nM |
| N#Cc1ccc(NC(=O)N2CCCN(CCCCCNC(=O)/C=C/c3ccc(Cl)c(Cl)c3)CC2)cc1 | 770 nM |
